Values belong to the compound of their own block, whether it stands above or below them. Non-standard residues stand in square brackets, D forms with d. Residues, ends and D or L forms follow the SMILES beside them. ξ: configuration not given here. Ile(3ξ) = CCC(C)[C@H](N)C(=O)O; Dap = NC[C@H](N)C(=O)O
Assays:
[1] = Battah et al. 2002; cited from earlier work
ribonuclease A [2] = assay: SDS PAGE electrophoresis of ribonuclease A incubated with methylglyoxal and inhibitor; assay type: biochemical; conditions: for protection from structural modifications (dimer form) caused by methylglyoxal: ribonuclease A 10 mg/ml, methylglyoxal 10 mM, inhibitor equimolar, 37° C., 48 hours
Protocol: (§1) Ribonuclease A and lysozyme (10 mg/ml) are incubated in the presence of methylglyoxal (10 mM) or in the presence of methylglyoxal and one of the inhibitors according to the present invention in an equimolar quantity at 37° C. After 48 hours of incubation, the proteins are analyzed by polyacrylamide gel electrophoresis (8%-16% SDS PAGE gel).
The AGE inhibitors according to the present invention, namely L-DAPA-L-Leu (example 1) and L-DAPA-L-Ile (example 18), or AG (10 mM) are incubated with MG and ribonuclease A for […] at 37° C.

ribonuclease A [3] = assay: Enzymatic activity of ribonuclease A after treatment with methylglyoxal and inhibitors (methylene blue RNA staining); assay type: biochemical; conditions: ribonuclease A treated with methylglyoxal (MG) + inhibitor in equimolar quantity, 37° C.; control RNase 100, RNase + methylglyoxal 10.11%
Protocol: as §1
The enzymatic activity of ribonuclease A after treatment with methylglyoxal and the various inhibitors according to the present invention is measured using the methylene blue RNA staining technique of Greiner-Stöffele et al. (Anal. Biochem. (1996) 240, 24).

EA.hy 926 cell line = assay: Growth of EA.hy 926 endothelial cells with MG scavengers and/or methylglyoxal (MTT); assay type: cell-based, human; conditions: for viability at 1000 µM: Homo sapiens, EA.hy 926, scavenger 1 mM + methylglyoxal 600 μM, relative to untreated control cells, MG alone 24, read-out: Cells + MG scavengers + Methylglyoxal (B); for viability at 1000 µM / Cells + MG scavengers (A): 48 hours, mean of 3 experiments; for Difference (B) − (A): Table 2, cells with scavenger + MG minus cells with scavenger alone; for Cells + MG scavengers (A): scavenger 1 mM, no methylglyoxal, number of cells relative to untreated control cells; for effect against suppression of cell growth by MG: scavenger + methylglyoxal; for difference between number of cells growing with compound and with MG and compound: values in brackets
Protocol: The cells used for the test are from the EA.hy 926 cell line, which are endothelial cells obtained by the hybridization of human umbilical vein endothelial cells (HUVECs) with lung cancer cells (A549). The EA.hy 926 endothelial cells are incubated in Dulbecco's modified Eagle's Medium (DMEM) enriched with 10% fetal calf serum. The cells are incubated in 12-well plates. Each well initially contains 100,000 cells. Cell growth is achieved by incubating the cells in 2 ml of culture medium after adding or not adding the various potential inhibitors (1 mM) and/or methylglyoxal (600 μM) for 48 hours at 37° C. in a moist atmosphere with 5% CO2.
The number of cells is evaluated in the following way:
The cells are stained using the (4,5-dimethylthiazol-2-yl)-2,5-diphenyltetrazolium bromide (MTT) assay. MTT penetrates in the cell where it is converted into formazan. The quantity of formazan formed is proportional to the number of living cells.
The results are expressed as a relative percentage of the number of cells after treatment compared to the number of control cells without treatment [100*OD (treated cells)/OD (control cells)]. Detection is carried out by UV/visible spectrophotometry at 570 nm.
Principle: MTT (yellow) penetrates the cell and is converted into an insoluble blue compound, formazan, by cleavage of its tetrazolium rings by the mitochondrial dehydrogenase enzymes of living cells. Formazan is solubilized by isopropanol. The number of cells is proportional to the quantity of formazan formed and its absorbance.

Human insulin = assay: Modification of insulin by methylglyoxal (HPLC); assay type: biochemical; conditions: insulin 0.034 mM, methylglyoxal 3.4 mM, scavenger 4.08 mM, pH 7.45, 37° C.
Protocol: FIG. 1 presents the comparative effects of dicarbonyl scavengers in the form of dihydrochloride according to the present invention and the comparison with DAPA on the modification of insulin (Ins) by methylglyoxal (MG). The percentage of insulin is indicated following incubation with methylglyoxal in the presence or absence of dicarbonyl scavengers. Insulin (0.034 mM) is incubated in vitro in a 10 mM phosphate buffer, pH 7.45 (containing 0.1 M NaCl) with methylglyoxal (3.4 mM) in the presence of dicarbonyl scavengers (4.08 mM) for 21 hours at 37° C. Insulin concentration is measured by HPLC (same conditions as in FIG. 3).
FIGS. 3 to 8 present the results obtained by HPLC for two compounds according to the present invention, L-DAPA-L-Leu (example 1) and L-DAPA-L-Val (example 23), on insulin modifications induced by methylglyoxal. It can be observed that these modifications are prevented. The HPLC conditions are as follows: C-18, Symmetry 300 (4.6×250 mm) column, injection volume 100 μl of reaction mixture; flow 1 ml/min; temperature 40° C.; solvent A: H2O+0.1% TFA; solvent B: 60/40 CH3CN/H2O+0.1% TFA; linear gradient of 50% B to 55% B in 15 minutes; detection: UV at 215 nm: PDA (chromatograms extracted at 220 nm).
Human insulin (Ins) is incubated with methylglyoxal (MG) under physiological conditions. After 24 hours, the insulin is completely modified, as illustrated in FIG. 1 (Ins+MG).
On the other hand, insulin is incubated with methylglyoxal in the presence of an equimolar quantity of the AGE inhibitors according to the present invention under physiological conditions.

[4] = Mutagenicity of DAPA (statement, no method given); conditions: no test described
glyoxalase I = assay: Glyoxalase I treated with methylglyoxal: non-denaturing electrophoresis and enzymatic activity; assay type: biochemical
Protocol: MG reacts with a protein's lysine and arginine residues, thus altering the charges on the modified polypeptide. […] The exposure of glyoxalase I to MG (10 mM) for 24 hours increases the mobility of the protein toward the positive electrode, a change that is consistent with the loss of positive charges from the ε-amino and guanidino groups and the gain of negative charges.
The incubation of glyoxalase I, a key protein in the α-oxoaldehyde detoxification system, in the presence of methylglyoxal, modifies the protein. This modification causes a change in charge and a 50% decrease in enzymatic activity compared to the control.

RNase A = RNase A modifications induced by methylglyoxal (HPLC); assay type: biochemical; conditions: RNase A 0.08 mM, methylglyoxal 32 mM, compound 38 mM, 21 hours at 37° C.
Protocol: FIGS. 11 to 13 present the results obtained by HPLC for three compounds according to the present invention, L-DAPA-L-Ile (example 18), L-DAPA-L-Val (example 23) and L-DAPA-L-Leu (example 1), on RNase A modifications induced by methylglyoxal. HPLC conditions are as follows: C-18, Symmetry 300 (4.6×250 mm) column, injection volume 100 μl of reaction mixture diluted to 1/10; flow 1 ml/min; temperature 40° C.; solvent A: H2O+0.1% TFA; solvent B: 60/40 CH3CN/H2O+0.1% TFA; linear gradient of 20% B to 80% B in 20 minutes; detection: UV at 215 nm: PDA (chromatograms extracted at 215 nm).

lysozyme = assay: SDS PAGE electrophoresis of lysozyme incubated with methylglyoxal and inhibitor; assay type: biochemical; conditions: lysozyme 10 mg/ml, methylglyoxal 10 mM, inhibitor equimolar, 37° C., 48 hours
Protocol: as §1

somatostatin-14 = assay: Somatostatin-14 modifications induced by methylglyoxal (HPLC); assay type: biochemical; conditions: somatostatin-14 0.03 mm, methylglyoxal 3.6 mM, compound 4.3 mM, 24 hours at 37° C.
Protocol: FIGS. 9 and 10 present the results obtained by HPLC for two compounds according to the present invention, L-DAPA-L-Leu (example 1) and L-DAPA-L-Val (example 23), on somatostatin-14 modifications induced by methylglyoxal. HPLC conditions are as follows: C-18, Symmetry 300 (4.6×250 mm) column, injection volume 100 μl of reaction mixture; flow 1 ml/min; solvent A: H2O+0.1% TFA; solvent B: 80/20 CH3CN/H2O+0.1% TFA; linear gradient: from 20% B to 60% B in 15 minutes and isocratic from 60% B for 10 minutes; ambient temperature; detection: PDA (chromatograms extracted at 215 nm).
In these figures, (a) represents the results of somatostatin-14 alone; (b) represents the results of somatostatin-14+methylglyoxal; (c) represents the results of somatostatin-14+methylglyoxal+L-DAPA-L-Val (example 23) and (d) represents the results of somatostatin-14+methylglyoxal+L-DAPA-L-Leu (example 1).

[5] = system: seven strains of Salmonella (six mixed strains, strain TA98); assay: Ames test with and without human liver S9 fractions; assay type: cell-based; design: key to Six mixed strains / Strain TA98: −: non-mutagenic; +: mutagenic; conditions: for Six mixed strains / Strain TA98: mixture with methylglyoxal, 10/1/0.1 μM
Protocol: An Ames test was performed with L-DAPA-L-Leu (example 1) and L-DAPA-L-Val (example 23) alone and in combination with methylglyoxal on human liver S9 fractions and on seven strains of Salmonella.
The concentrations used in the Ames test were as follows: • L-DAPA-L-Leu alone or L-DAPA-L-Val alone: 10 μM, 1 μM and 0.1 μM. • L-DAPA-L-Leu/methylglyoxal mixture or L-DAPA-L-Val/methylglyoxal mixture: 10 μM, 1 μM and 0.1 μM. • Methylglyoxal: 10 μM.

Cells + MG scavengers (A) (EA.hy 926 cell line): 97%
SMILES: N=C(N)NN [Aminoguanidine, aminoguanidine, reference compound]
better scavenger of methylglyoxal compared with metformin (factor) [1]: 450
protecting effect against structural modifications of ribonuclease A induced by MG, compared with the inhibitors of the invention (ribonuclease A [2]; 10 mM, 40 hours at 37° C.): much less effective
Enzymatic activity (%) (ribonuclease A [3]): 70.52%
viability at 1000 µM (EA.hy 926 cell line): 92%
Difference (B) − (A) (EA.hy 926 cell line): −5
effect against suppression of cell growth by MG (EA.hy 926 cell line): suppresses this process in a spectacular manner

Cells + MG scavengers (A) (EA.hy 926 cell line): 83%
SMILES: NCC(N)C(=O)O [D-DAPA, 2,3-diaminopropionic acid, reference compound]
modification of insulin by methylglyoxal (Human insulin): prevents the modification of insulin by MG
Enzymatic activity (%) (ribonuclease A [3]): 20.32%
cell survival when incubated with MG (EA.hy 926 cell line): 68%
viability at 1000 µM (EA.hy 926 cell line): 68%
Difference (B) − (A) (EA.hy 926 cell line): −15
toxicity with respect to EA cells (EA.hy 926 cell line; compound alone, 1 mM): cytotoxicity is higher
mutagenicity [4]: appears to be mutagenic

gain of negative charge of glyoxalase I exposed to MG (glyoxalase I; MG 10 mM, 24 hours, non-denaturing electrophoresis): inhibits the gain of negative charge
Cells + MG scavengers (A) (EA.hy 926 cell line): 86%
RNase A modifications induced by methylglyoxal (RNase A): prevent the modifications to RNase A
SMILES: CCC(C)[C@H](NC(=O)[C@@H](N)CN)C(=O)O (stereo partly drawn) [example 18, L-DAPA-L-Ile.2HCl] (H-[Dap]-[Ile(3ξ)]-OH)
inhibition of glyoxalase I enzymatic activity and structural modification by methylglyoxal (glyoxalase I; MG alone: 50% decrease in enzymatic activity): prevents the inhibition exerted by methylglyoxal and protects against structural modifications
protection from structural modifications (dimer form) caused by methylglyoxal (ribonuclease A [2]): provides protection
Enzymatic activity (%) (ribonuclease A [3]): 90.77%
cell survival when incubated with MG (EA.hy 926 cell line): 79%
viability at 1000 µM (EA.hy 926 cell line): 79%
Difference (B) − (A) (EA.hy 926 cell line): −7
effect against suppression of cell growth by MG (EA.hy 926 cell line): same trend
difference between number of cells growing with compound and with MG and compound (EA.hy 926 cell line): −9
protection from structural modifications (dimer form) caused by methylglyoxal (lysozyme): provides protection

SMILES: CC(C)[C@H](NC(=O)[C@@H](N)CN)C(=O)O [example 23, L-DAPA-L-Val.2HCl] (H-[Dap]-Val-OH)
somatostatin-14 modifications induced by methylglyoxal (somatostatin-14): prevent the modifications induced by methylglyoxal
modification of insulin by methylglyoxal (Human insulin): prevented
protection from structural modifications (dimer form) caused by methylglyoxal (ribonuclease A [2]): provides protection
Six mixed strains ([5]; Human S9: No): −
Strain TA98 ([5]; Human S9: No): −
Six mixed strains ([5]; Human S9: Yes (metabolites)): −
Strain TA98 ([5]; Human S9: Yes (metabolites)): −
mutagenicity ([5]; alone or in combination with methylglyoxal, TA98, mixed strains, human liver S9 fractions): neither substance (L-DAPA-L-Leu or L-DAPA-L-Val) was mutagenic
Enzymatic activity (%) (ribonuclease A [3]): 90.77%
cell survival when incubated with MG (EA.hy 926 cell line): 93%
viability at 1000 µM (EA.hy 926 cell line): 93%
Difference (B) − (A) (EA.hy 926 cell line): −1
Cells + MG scavengers (A) (EA.hy 926 cell line): 94%
effect against suppression of cell growth by MG (EA.hy 926 cell line): same trend
difference between number of cells growing with compound and with MG and compound (EA.hy 926 cell line): −3
RNase A modifications induced by methylglyoxal (RNase A): prevent the modifications to RNase A
protection from structural modifications (dimer form) caused by methylglyoxal (lysozyme): provides protection

Source: patent US9512176B2, “Age inhibitors” (Centre National de la Recherche Scientifique, priority 2005, dated 2016)
